Common to all, as to assay type: in vivo, human
Series [1] is described as follows: Example 3: Phase 1 study of ketoconazole 200 mg twice daily with mifepristone 600 mg once daily with food, plasma PK incl. cross-study comparison. The conditions noted are these: for mean increase / change in exposure on co-administration with ketoconazole: 600 mg mifepristone once daily with 200 mg ketoconazole twice daily; for effect of ketoconazole on exposure (90% CI vs standard 80:125 interval): Day 17 vs Day 12; for concentrations on Day 17 compared with Day 12: Day 17 with 200 mg ketoconazole twice daily, Day 12 mifepristone alone; for AUC0-24 Ratio % Test/Ref (cross-study, geometric mean ratio) / Cmax Ratio % Test/Ref (cross-study, geometric mean ratio): Test: Present Study Day 17 600 mg mifepristone OD + 200 mg Ketoconazole BID, Reference: Historic Study Day 7 1200 mg mifepristone OD alone, after 34% fat meal.

Series [2] in a line: Example 2: effect of a 400 mg single dose of ketoconazole on PK of an 8-day regimen of 300 mg or 600 mg OD mifepristone, moderate fat breakfast. How it is done:
This was an open-label study in healthy male subjects. […] The 400 mg single dose of ketoconazole was given to all subjects on day 8.
METHODOLOGY: Twelve subjects were enrolled, six in Cohort 1 and 6 in Cohort 2.
Subjects were discharged on Day 11.
Subjects were discharged on Day 11. Subjects in both cohorts returned to study center on Day 13 for safety monitoring, collection of the 120-hour PK draw, and completion of the Termination Visit procedures, followed by discharge from the study. To the extent possible, any adverse events deemed study drug-related and that were ongoing at the time of discharge from the study were followed-up to resolution or until a determination was made that the unresolved event was stable.
DIAGNOSIS AND MAIN […] FOR INCLUSION: Healthy male volunteers between the ages of 18 to 45 years of age with a body mass index (BMI) ranging between 19 and 32 kg/m2 and a weight of at least 60 kg (132 lbs) were enrolled. Subjects had no clinically significant abnormal findings on the physical examination, ECG, blood pressure, heart rate, medical history, or clinical laboratory results during screening. The QTc interval at screening was less than 450 msec.
DURATION OF TREATMENT: Up to a total of 28 days, including up to 2 weeks screening, dosing on Days 1-8, safety observation, and PK sample collection through Day 13.
Additionally, comparisons were made between the PK results of cohort 1 and 2. Pharmacokinetic parameters Cmax, T1/2 and total AUC were calculated for plasma concentrations of ketoconazole following the single dose on Day 8. Descriptive statistics (count, mean, median, standard deviation, minimum, maximum, and % coefficient of variation) were provided. Ketoconazole concentrations were listed and summarized. GM means of Cmax and total AUC were compared for the single dose in this study to the combined data of reported 400 mg single doses of ketoconazole of healthy subjects from the literature.

The nature of series [3]: Example 1: safety (adverse events, laboratory tests, ECG). The conditions noted are these: mifepristone 300 mg single dose with ketoconazole for 14 days. The protocol: In cohort 1, six subjects received ketoconazole 400 mg OD for 14 days.
In cohort 2, six subjects received ketoconazole 200 mg BID for 14 days. […] All 12 subjects completed the study. Cohort 2 subjects participated in a Screening visit to assess eligibility and a check-in Day (Day −1) during which eligibility was re-confirmed. […] The evening of Day 1, subjects received 200 mg oral ketoconazole. Subjects remained in the clinic on Days 2, 3 and 4 to receive 200 mg BID oral ketoconazole, and for safety evaluation and collection of blood pharmacokinetic (PK) samples. Subjects were discharged from the clinic on Day 4 following evening administration of 200 mg oral ketoconazole, and returned to the clinic the morning and evening of Days 5 through 13 to receive 200 mg BID oral ketoconazole. Morning doses of ketoconazole on Days 0-13 were administered in the fasted state.
Subjects in both cohorts returned to the study center on Day 15 for safety monitoring, and completion of the Termination Visit procedures, followed by discharge from the study. Safety was assessed by spontaneously reported adverse events, physical examinations, and routine clinical laboratory tests. To the extent possible, any adverse events deemed study drug-related and that were ongoing at the time of discharge from the study were followed-up to resolution or until a determination is made that the unresolved event was stable.

Where [4] appears, read: Test: Day 17 600 mg mifepristone OD + 200 mg Ketoconazole BID, Reference: Day 12 600 mg mifepristone OD.
[5] abbreviates: single 400 mg ketoconazole dose on Day 8.
Where [6] appears, read: 400 mg ketoconazole (200 mg twice per day) concomitantly with 600 mg mifepristone per day, fifth day.
[7] abbreviates: Test: Day 17 600 mg mifepristone OD + 200 mg Ketoconazole BID, Reference: Day −1 200 mg Ketoconazole Single Dose.

Consider `CC#C[C@]1(O)CC[C@H]2[C@@H]3CCC4=CC(=O)CCC4=C3[C@@H](c3ccc(N)cc3)C[C@@]21C` [RU 42848, (8S,11R,13S,14S,17S)-11-(4-aminophenyl)-17-hydroxy-13-methyl-17-prop-1-ynyl-1,2,6,7,8,11,12,14,15,16-decahydrocyclopenta[a]phenanthren-3-one], for which, in series [1], the “mean increase / change in exposure on co-administration with ketoconazole” value (“mean increase / change in exposure” below) is on record as “little change”; the “effect of ketoconazole on exposure (90% CI vs standard 80:125 interval)” value (“effect … (90% CI vs standard 80:125 interval)” below) is on record as “not affected”; the “concentrations on Day 17 compared with Day 12” value is “similar”; the “AUC0-24 Ratio % Test/Ref (cross-study, geometric mean ratio)” value was 81.43%. In addition, the “Cmax Ratio % Test/Ref (cross-study, geometric mean ratio)” value in series [1] was 82.45%. Further, in series [1] (setting [4]), the “AUC0-24 Ratio % Test/Reference (geometric mean ratio)” value (“AUC0-24 Ratio % Test/Reference” for short) was found to be 94.88% and the “Cmax Ratio % Test/Reference (geometric mean ratio)” value (“Cmax Ratio % Test/Reference” for short) stood at 95.48%.
Consider `CN(C)c1ccc([C@H]2C[C@@]3(C)[C@@H](CC[C@@]3(O)C#CCO)[C@@H]3CCC4=CC(=O)CCC4=C32)cc1` [RU 42698, (8S,11R,13S,14S,17S)-11-[4-(dimethylamino)phenyl]-17-hydroxy-17-(3-hydroxyprop-1-ynyl)-13-methyl-1,2,6,7,8,11,12,14,15,16-decahydrocyclopenta[a]phenanthren-3-one], for which the “mean metabolite exposure compared with mifepristone” value in series [2] (300 or 600 mg OD mifepristone, Days 7-13) is recorded as “lower”. Besides, in series [1], the “mean increase / change in exposure” value was “approximately 70%”; the “effect … (90% CI vs standard 80:125 interval)” value is recorded as “increased”; the “concentrations on Day 17 compared with Day 12” value is reported as “higher”; the “AUC0-24 Ratio % Test/Ref (cross-study, geometric mean ratio)” value worked out at 118.18%. Further, in series [1], the “Cmax Ratio % Test/Ref (cross-study, geometric mean ratio)” value was found to be 116.55%. Besides, in series [1] (setting [4]), the “AUC0-24 Ratio % Test/Reference” value was 166.86% and the “Cmax Ratio % Test/Reference” value stood at 169.13%. Further, in series [1] (in the presence of ketoconazole), the “share of total steady-state AUC0-24 of mifepristone, RU42633, RU42698, RU42848” value is recorded as 13%. The “share of total steady-state AUC0-24 of mifepristone, RU42633, RU42698, RU42848” value in series [1] (mifepristone alone) is reported as 9%.
Turning to `CC#C[C@]1(O)CC[C@H]2[C@@H]3CCC4=CC(=O)CCC4=C3[C@@H](c3ccc(NC)cc3)C[C@@]21C` [RU 42633, (8S,11R,13S,14S,17S)-17-hydroxy-13-methyl-11-[4-(methylamino)phenyl]-17-prop-1-ynyl-1,2,6,7,8,11,12,14,15,16-decahydrocyclopenta[a]phenanthren-3-one], in series [1], the “mean increase / change in exposure” value was “little change”; the “effect … (90% CI vs standard 80:125 interval)” value is “not affected”; the “concentrations on Day 17 compared with Day 12” value is “similar”; the “AUC0-24 Ratio % Test/Ref (cross-study, geometric mean ratio)” value was found to be 91.34%. In series [1], the “Cmax Ratio % Test/Ref (cross-study, geometric mean ratio)” value was found to be 96.31%. Besides, in series [1] (setting [4]), the “AUC0-24 Ratio % Test/Reference” value is 102.33% and the “Cmax Ratio % Test/Reference” value stood at 105.73%.
Regarding `CC(=O)N1CCN(c2ccc(OCC3COC(Cn4ccnc4)(c4ccc(Cl)cc4Cl)O3)cc2)CC1` (centres unmarked) [ketoconazole, 1-acetyl-4-[4-[[2-(2,4-dichlorophenyl)-2-[(1H-imidazol-1-yl)-methyl]-1,3-dioxolan-4-yl]methoxy]phenyl]piperazine], the “TEAEs considered by the investigator to be related to the drug” value in series [3] is “One TEAE of insomnia”. Besides, in series [2] (setting [5]), the “AUCinf higher on 600 mg OD mifepristone regimen relative to 300 mg OD” value stood at 36% and the “Cmax higher on 600 mg OD mifepristone regimen relative to 300 mg OD” value came to 37%. Also, the “half-life on either mifepristone regimen” value in series [2] (single 400 mg ketoconazole dose on Day 8, mifepristone 300 vs 600 mg OD) is on record as “not appreciably different”. Moreover, in series [1] (setting [6]), the “increase in ketoconazole AUC” value was 253% and the “increase in ketoconazole Cmax” value stood at 365%. For the same compound, in series [1] (setting [7]), the “AUC Ratio % Test/Reference (geometric mean ratio)” value is 365.36% and the “Cmax Ratio % Test/Reference” value is on record as 252.71%.

For the origin of these results see patent US20170281651A1, “CONCOMITANT ADMINISTRATION OF GLUCOCORTICOID RECEPTOR MODULATORS AND CYP3A OR STEROIDOGENESIS INHIBITORS” (Corcept Therapeutics, Inc., priority 2017, published 2017).
